Assays:
Assay type in all cases: functional
Alternaria brassicae = assay: Antifungal activity against Alternaria brassicae assessed as percent inhibition at 100 ug/ml
[1] = Antifungal activity against Fusarium oxysporum f. sp. cucumerinum assessed as percent inhibition at 100 ug/ml
Bipolaris sorokiniana = assay: Antifungal activity against Bipolaris sorokiniana assessed as percent inhibition at 100 ug/ml
Alternaria alternata = assay: Antifungal activity against Alternaria alternata assessed as percent inhibition at 100 ug/ml
[2] = tested on: Fusarium oxysporum f. sp. vasinfectum; assay: Antifungal activity against Fusarium oxysporum f. sp. vasinfectum assessed as percent inhibition at 100 ug/ml
Fusarium graminearum = assay: Antifungal activity against Fusarium graminearum assessed as percent inhibition at 100 ug/ml
Pyricularia oryzae = assay: Antifungal activity against Pyricularia oryzae assessed as percent inhibition at 100 ug/ml

Structure (SMILES)	inhibition at 100 µg/mL (Alternaria brassicae)	inhibition [1]	inhibition at 100 µg/mL (Bipolaris sorokiniana)	inhibition at 100 µg/mL (Alternaria alternata)	inhibition at 100 µg/mL [2]	inhibition at 100 µg/mL (Fusarium graminearum)	inhibition at 100 µg/mL (Pyricularia oryzae)
C/C(=N\NC(=N)N)c1cn(S(=O)(=O)c2cccc([N+](=O)[O-])c2)c2cc(C)ccc12	33.3%	34.9%	37.6%	50.6%	23.2%	20.6%	50.7%
Cc1ccc(S(=O)(=O)n2cc(/C=N/NC(=N)N)c3c(C)cccc32)cc1	49.1%	44.7%	72.6%	70.8%	41.6%	48.2%	72.2%
N=C(N)N/N=C/c1cn(S(=O)(=O)c2ccccc2)c2ccccc12	38.8%	33.7%	66.5%	61.5%	47.8%	46.3%	57.8%
Cc1cc(O)no1 [HYMEXAZOL]	58%	60%	61.9%	70.8%	63.2%	68%	75.1%
Cc1ccc(S(=O)(=O)n2cc(/C=N/NC(=N)N)c3ccc(C)cc32)cc1	30.9%	43.5%	46.2%	59.2%	40.5%	39%	58.2%
Cc1ccc(S(=O)(=O)n2cc(/C=N/NC(=N)N)c3cc(C#N)ccc32)cc1	10.4%	6.55%	17%	15.2%	13%	13.3%	16.3%
CC/C(=N\NC(=N)N)c1cn(S(=O)(=O)c2ccccc2)c2ccccc12	43.3%	48.4%	69.2%	73.8%	56.7%	50.5%	75.6%
CCCCC/C(=N\NC(=N)N)c1cn(S(=O)(=O)c2ccccc2)c2ccccc12	30%	38.6%	50.2%	60.6%	30.7%	39.4%	52%
N#Cc1ccc2c(c1)c(/C=N/NC(=N)N)cn2S(=O)(=O)c1ccccc1	9.09%	11.1%	13.8%	23.4%	14.1%	26%	20.1%
C/C(=N\NC(=N)N)c1cn(S(=O)(=O)c2ccc(C)cc2)c2cccc(C)c12	56.9%	57%	80.6%	83%	55.6%	46.6%	84.8%
CCCCC/C(=N\NC(=N)N)c1cn(S(=O)(=O)c2ccc(C)cc2)c2cc(C)ccc12	22.8%	39.8%	50.5%	54.7%	33.3%	28.5%	44.5%
COc1ccc(S(=O)(=O)n2cc(/C(C)=N/NC(=N)N)c3ccc(C)cc32)cc1	18.2%	25.8%	35%	42.5%	24.2%	44.8%	43%
Cc1ccc(S(=O)(=O)n2cc(/C=N/NC(=N)N)c3ccccc32)cc1	34.9%	36.5%	66%	65.3%	51.8%	44.1%	56.7%
C/C(=N\NC(=N)N)c1cn(S(=O)(=O)c2ccccc2)c2ccccc12	40.2%	49.7%	75.3%	73.5%	60%	37.8%	74.3%
C/C(=N\NC(=N)N)c1cn(S(=O)(=O)c2ccc(C)cc2)c2ccccc12	37.9%	37.2%	58.4%	62.9%	58.3%	48.8%	52.3%
C/C(=N\NC(=N)N)c1cn(S(=O)(=O)c2ccccc2)c2cccc(C)c12	52%	63.1%	82.3%	79.2%	64.9%	52.3%	79.6%
Cc1cccc2c1c(/C=N/NC(=N)N)cn2S(=O)(=O)c1ccccc1	21.1%	26.3%	36.9%	42.5%	19.9%	26%	46.8%
N=C(N)N/N=C/c1cn(S(=O)(=O)c2cccc([N+](=O)[O-])c2)c2ccccc12	30%	28%	36.9%	51.1%	28.6%	31.4%	42.3%
Cc1ccc2c(/C=N/NC(=N)N)cn(S(=O)(=O)c3ccccc3)c2c1	48.4%	41%	59.5%	69.2%	40%	47.8%	64.2%
